Converted amounts (≈) assume the structure as drawn.
What was measured:
Assay type in all cases: cell-based
[1] = tested on: Staph. aureus ATCC 6538P; assay: MIC by agar dilution, Staph. aureus ATCC 6538P; conditions: Staphylococcus aureus, ATCC6538P, 17 h; Staph. aureus ATCC 6538P; agar dilution, Mueller-Hinton agar; read-out: Minimal Inhibitory Concentration (MIC)
Procedure, shortened: (§1)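 Following inoculation at 10^6 CFU per ml onto agar containing two-fold compound dilutions, plates were incubated 17±1 hours at 35°-37° C.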

[2] = tested on: Prov. stuartii IFO 12930; assay: MIC by agar dilution, Prov. stuartii IFO 12930; conditions: Providencia stuartii, IFO12930, 17 h, Mueller-Hinton agar, read-out: Minimal Inhibitory Concentration (MIC)
Procedure, shortened: as §1

[3] = tested on: P. vulgaris NCTC 8313; assay: MIC by agar dilution, P. vulgaris NCTC 8313; conditions: Proteus vulgaris, NCTC8313, 17 h; P. vulgaris NCTC 8313; agar dilution, Mueller-Hinton agar; read-out: Minimal Inhibitory Concentration (MIC)
Procedure, shortened: as §1

[4] = tested on: S. epidermidis ATCC 12228; assay: MIC by agar dilution, S. epidermidis ATCC 12228; conditions: Staphylococcus epidermidis, ATCC12228, 17 h; S. epidermidis ATCC 12228; agar dilution, Mueller-Hinton agar; read-out: Minimal Inhibitory Concentration (MIC)
Procedure, shortened: as §1

[5] = tested on: E. coli NIHJ JC-2; assay: MIC by agar dilution, E. coli NIHJ JC-2; conditions: Escherichia coli, NIHJJC2, 17 h; E. coli NIHJ JC-2; agar dilution, Mueller-Hinton agar; read-out: Minimal Inhibitory Concentration (MIC)
Procedure, shortened: as §1

[6] = tested on: E. coli DY-1; assay: MIC by agar dilution, E. coli DY-1; conditions: Escherichia coli, DY1, 17 h; E. coli DY-1; agar dilution, Mueller-Hinton agar; read-out: Minimal Inhibitory Concentration (MIC)
Procedure, shortened: as §1

[7] = tested on: K. pneumoniae NCTC 9632; assay: MIC by agar dilution, K. pneumoniae NCTC 9632; conditions: Klebsiella pneumoniae, NCTC9632, 17 h; K. pneumoniae NCTC 9632; agar dilution, Mueller-Hinton agar; read-out: Minimal Inhibitory Concentration (MIC)
Procedure, shortened: as §1

[8] = tested on: Ser. marcescens IFO 12648; assay: MIC by agar dilution, Ser. marcescens IFO 12648; conditions: Serratia marcescens, IFO12648, 17 h; Ser. marcescens IFO 12648; agar dilution, Mueller-Hinton agar; read-out: Minimal Inhibitory Concentration (MIC)
Procedure, shortened: as §1

[9] = tested on: Ent. cloacae IFO 13535; assay: MIC by agar dilution, Ent. cloacae IFO 13535; conditions: Enterobacter cloacae, IFO13535, 17 h; Ent. cloacae IFO 13535; agar dilution, Mueller-Hinton agar; read-out: Minimal Inhibitory Concentration (MIC)
Procedure, shortened: as §1

[10] = tested on: Ps. aeruginosa DY-2; assay: MIC by agar dilution, Ps. aeruginosa DY-2; conditions: Pseudomonas aeruginosa, DY2, 17 h; Ps. aeruginosa DY-2; agar dilution, Mueller-Hinton agar; read-out: Minimal Inhibitory Concentration (MIC)
Procedure, shortened: as §1

[11] = tested on: Ps. aeruginosa NCTC 10490; assay: MIC by agar dilution, Ps. aeruginosa NCTC 10490; conditions: Pseudomonas aeruginosa, NCTC10490, 17 h, Mueller-Hinton agar, read-out: Minimal Inhibitory Concentration (MIC)
Procedure, shortened: as §1

[12] = tested on: M. morganii DY-1; assay: MIC by agar dilution, M. morganii DY-1; conditions: Morganella morganii, DY1, 17 h; M. morganii DY-1; agar dilution, Mueller-Hinton agar; read-out: Minimal Inhibitory Concentration (MIC)
Procedure, shortened: as §1

[13] = tested on: B. subtilis ATCC 6633; assay: MIC by agar dilution, B. subtilis ATCC 6633; conditions: Bacillus subtilis, ATCC6633, 17 h; B. subtilis ATCC 6633; agar dilution, Mueller-Hinton agar; read-out: Minimal Inhibitory Concentration (MIC)
Procedure, shortened: as §1

[14] = tested on: Staph. aureus C-5113; assay: MIC by agar dilution, Staph. aureus C-5113; conditions: Staphylococcus aureus, C5113, 17 h, Mueller-Hinton agar, read-out: Minimal Inhibitory Concentration (MIC)
Procedure, shortened: as §1

[15] = tested on: Staph. aureus C-57; assay: MIC by agar dilution, Staph. aureus C-57; conditions: Staphylococcus aureus, C57, 17 h, Mueller-Hinton agar, read-out: Minimal Inhibitory Concentration (MIC)
Procedure, shortened: as §1

[16] = tested on: Staph. aureus Smith; assay: MIC by agar dilution, Staph. aureus Smith; conditions: Staphylococcus aureus, 17 h, Mueller-Hinton agar, read-out: Minimal Inhibitory Concentration (MIC)
Procedure, shortened: as §1

[17] = tested on: Ps. aeruginosa ATCC 10145; assay: MIC by agar dilution, Ps. aeruginosa ATCC 10145; conditions: Pseudomonas aeruginosa, ATCC10145, 17 h, Mueller-Hinton agar, read-out: Minimal Inhibitory Concentration (MIC)
Procedure, shortened: as §1

[18] = tested on: E. coli No. 29; assay: MIC by agar dilution, E. coli No. 29; conditions: Escherichia coli, 17 h; E. coli No. 29; agar dilution, Mueller-Hinton agar; read-out: Minimal Inhibitory Concentration (MIC)
Procedure, shortened: as §1

[19] = tested on: Ent. aerogenes IFO 12979; assay: MIC by agar dilution, Ent. aerogenes IFO 12979; conditions: Klebsiella aerogenes, IFO12979, 17 h, Mueller-Hinton agar, read-out: Minimal Inhibitory Concentration (MIC)
Procedure, shortened: as §1

[20] = tested on: Staph. aureus C-5216; assay: MIC by agar dilution, Staph. aureus C-5216; conditions: Staphylococcus aureus, C5216, 17 h, Mueller-Hinton agar, read-out: Minimal Inhibitory Concentration (MIC)
Procedure, shortened: as §1

Structure (SMILES) | MIC [1] [µg/mL] | MIC [2] [µg/mL] | MIC [3] [µg/mL] | MIC [4] [µg/mL] | MIC [5] [µg/mL] | MIC [6] [µg/mL] | MIC [7] [µg/mL] | MIC [8] [µg/mL] | MIC [9] [µg/mL] | MIC [10] [µg/mL] | MIC [11] [µg/mL] | MIC [12] [µg/mL] | MIC [13] [µg/mL] | MIC [14] [µg/mL] | MIC [15] [µg/mL] | MIC [16] [µg/mL] | MIC [17] [µg/mL] | MIC [18] [µg/mL] | MIC [19] [µg/mL] | MIC [20] [µg/mL]
CON=C(C(=O)NC1C(=O)N2C(C(=O)[O-])=C(C[n+]3ccn4c(C(C)=O)ccc4c3)CSC12)c1csc(N)n1 (stereo not drawn) [Ex. 18, 7-β-[(Z)-2-(2-aminothiazol-4-yl)-2-methoxyiminoacetamido]-3-(6-acetylpyrrolo[1,2-a]pyrazinium-2-yl)methyl-3-cephem-4-carboxylate] | 0.2 (≈ 0.36 µM) | 0.012 (≈ 0.0216 µM) | 0.012 (≈ 0.0216 µM) | 0.05 (≈ 0.09 µM) | 0.012 (≈ 0.0216 µM) | 0.012 (≈ 0.0216 µM) | 0.025 (≈ 0.045 µM) | 0.012 (≈ 0.0216 µM) | 0.1 (≈ 0.18 µM) | 6.25 (≈ 11.2 µM) | 0.2 (≈ 0.36 µM) | 0.025 (≈ 0.045 µM) | 0.2 (≈ 0.36 µM) | 0.78 (≈ 1.4 µM) | 25 (≈ 45 µM) | 0.78 (≈ 1.4 µM) | 1.56 (≈ 2.81 µM) | 0.025 (≈ 0.045 µM) | 0.012 (≈ 0.0216 µM) | 1.56 (≈ 2.81 µM)
CON=C(C(=O)NC1C(=O)N2C(C(=O)[O-])=C(C[n+]3ccn4c(C(C)O)ccc4c3)CSC12)c1csc(N)n1 (stereo not drawn) [Ex. 20, 7-β-[(Z)-2-(2-aminothiazol-4-yl)-2-methoxyiminoacetamido]-3-[6-(1-hydroxyethyl)pyrrolo[1,2-a]pyrazinium-2-yl]methyl-3-cephem-4-carboxylate] | 0.2 (≈ 0.359 µM) | ≤ 0.006 | 0.012 (≈ 0.0215 µM) | 0.2 (≈ 0.359 µM) | 0.025 (≈ 0.0448 µM) | ≤ 0.006 | 0.012 (≈ 0.0215 µM) | 0.025 (≈ 0.0448 µM) | 0.1 (≈ 0.179 µM) | 3.13 (≈ 5.61 µM) | 0.2 (≈ 0.359 µM) | 0.012 (≈ 0.0215 µM) | 0.1 (≈ 0.179 µM) | 1.56 (≈ 2.8 µM) | 50 (≈ 89.7 µM) | 0.78 (≈ 1.4 µM) | 0.78 (≈ 1.4 µM) | ≤ 0.006 | ≤ 0.006 | 1.56 (≈ 2.8 µM)
CCO/N=C(\C(=O)N[C@@H]1C(=O)N2C(C(=O)[O-])=C(C[n+]3ccn4cccc4c3C)CS[C@H]12)c1csc(N)n1 [Ex. 41, 7-β-[(Z)-2-(2-aminothiazol-4-yl)-2-ethoxyiminoacetamido]-3-(1-methylpyrrolo[1,2-a]pyrazinium-2-yl)methyl-3-cephem-4-carboxylate] | 0.2 (≈ 0.369 µM) | 0.012 (≈ 0.0222 µM) | ≤ 0.006 | 0.1 (≈ 0.185 µM) | 0.025 (≈ 0.0462 µM) | 0.012 (≈ 0.0222 µM) | 0.025 (≈ 0.0462 µM) | 0.05 (≈ 0.0923 µM) | 0.2 (≈ 0.369 µM) | 3.13 (≈ 5.78 µM) | 0.39 (≈ 0.72 µM) | 0.025 (≈ 0.0462 µM) | 0.2 (≈ 0.369 µM) | 0.78 (≈ 1.44 µM) | 12.5 (≈ 23.1 µM) | 0.39 (≈ 0.72 µM) | 1.56 (≈ 2.88 µM) | 0.012 (≈ 0.0222 µM) | 0.025 (≈ 0.0462 µM) | 1.56 (≈ 2.88 µM)
CON=C(C(=O)NC1C(=O)N2C(C(=O)[O-])=C(C[n+]3ccn4cccc4c3)CSC12)c1csc(N)n1 (stereo not drawn) [Ex. 1-1, 7-β-[(Z)-2-(2-aminothiazol-4-yl)2-methoxyiminoacetamido]-3-(pyrrolo[1,2a]pyrazinium-2-yl)methyl-3-cephem-4-carboxylate] | 0.1 (≈ 0.195 µM) | ≤ 0.006 | ≤ 0.006 | 0.025 (≈ 0.0487 µM) | ≤ 0.006 | ≤ 0.006 | ≤ 0.006 | ≤ 0.006 | 0.05 (≈ 0.0974 µM) | 1.56 (≈ 3.04 µM) | 0.1 (≈ 0.195 µM) | ≤ 0.006 | 0.1 (≈ 0.195 µM) | 0.78 (≈ 1.52 µM) | 25 (≈ 48.7 µM) | 0.39 (≈ 0.759 µM) | 0.39 (≈ 0.759 µM) | ≤ 0.006 | ≤ 0.006 | 0.78 (≈ 1.52 µM)

— patent US5593984A, “Cephalosporin derivatives” (Yuhan Corporation, priority 1992, dated 1997)
